Here are results for 13 molecules from US8481531B2, “Bicyclic heterocyclyl derivatives as FGFR kinase inhibitors for therapeutic use” (Astex Therapeutics Ltd, priority 2009, dated 2013).

In one data set the target is T1, Ba/F3-TEL-FGFR3 cells (Homo sapiens, UniProt P22607).
T1 construct: fused on or other part: P41212 (Transcription factor ETV6)
The data set is described as follows: Ba/F3-TEL-FGFR3 cell proliferation assay (Alamar Blue). The data set is classed as cell-based. As to conditions: 72 hours; for GI50: read-out: BaF3-TEL-FGFR3 prolif. The procedure, abridged:
(§1)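 Ba/F3-TEL-FGFR3 cells (5×10^3/well, G418) and parental Ba/F3 (2.5×10^3/well, 2 ng/ml mouse IL-3) in RPMI/10% FBS, plated overnight, then compound for 72 h at 0.1% DMSO final. Alamar Blue 4-6 h, fluorescence 535/590 nm; IC50 where inhibition high.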
A general note: Resazurin is reduced to fluorescent resorufin, in cell work by metabolically active cells.

The target in another data set is T2, VEGFR2 (Homo sapiens, UniProt P35968).
T2 construct: purchased Upstate
The data set is described as follows: VEGFR2 in vitro kinase inhibitory activity assay (TRF). The data set is classed as biochemical. Particulars: 0.5 μM ATP, 1 hour; read-out: VEGFR2 IC50(μM) or % I.

The subject of data set [1] is parental wild-type Ba/F3 cells. The data set is described as follows: Ba/F3 (WT) cell proliferation assay (Alamar Blue). The data set is classed as cell-based. Particulars: BaF3, 72 hours, read-out: BaF3 WT prolif; for IC50: with mouse IL-3. The procedure, abridged: as §1
The next data set concerns the target T3, FGFR3 (Homo sapiens, UniProt P22607).
T3 construct: purchased Upstate
The data set is described as follows: FGFR3 in vitro kinase inhibitory activity assay (TRF). It is filed as biochemical. Particulars: 8 μM ATP, 3 hours; read-out: FGFR3 IC50(μM) or % I.

Structures are written as SMILES.

T3 sequence (P22607 23-806): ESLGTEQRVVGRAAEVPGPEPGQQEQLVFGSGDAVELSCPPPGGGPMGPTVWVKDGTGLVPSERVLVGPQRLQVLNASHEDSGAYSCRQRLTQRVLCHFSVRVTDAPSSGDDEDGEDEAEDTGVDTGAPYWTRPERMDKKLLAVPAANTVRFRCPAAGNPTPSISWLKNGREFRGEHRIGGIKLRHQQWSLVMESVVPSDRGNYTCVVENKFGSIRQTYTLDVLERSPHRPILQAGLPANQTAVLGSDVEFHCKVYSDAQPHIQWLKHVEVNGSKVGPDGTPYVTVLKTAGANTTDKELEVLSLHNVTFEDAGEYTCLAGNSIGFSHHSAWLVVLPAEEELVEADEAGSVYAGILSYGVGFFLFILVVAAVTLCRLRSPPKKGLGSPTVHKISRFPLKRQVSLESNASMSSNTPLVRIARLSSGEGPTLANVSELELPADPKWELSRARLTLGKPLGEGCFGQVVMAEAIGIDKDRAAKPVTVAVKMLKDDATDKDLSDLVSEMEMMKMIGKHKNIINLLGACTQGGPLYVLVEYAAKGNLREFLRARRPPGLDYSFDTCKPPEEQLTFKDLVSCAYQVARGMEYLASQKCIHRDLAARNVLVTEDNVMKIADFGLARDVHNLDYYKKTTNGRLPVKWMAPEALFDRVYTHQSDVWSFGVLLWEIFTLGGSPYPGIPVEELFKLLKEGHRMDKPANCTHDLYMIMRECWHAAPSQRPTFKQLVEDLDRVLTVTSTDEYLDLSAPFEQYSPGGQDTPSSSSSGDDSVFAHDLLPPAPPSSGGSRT
T2 sequence (P35968 20-1356): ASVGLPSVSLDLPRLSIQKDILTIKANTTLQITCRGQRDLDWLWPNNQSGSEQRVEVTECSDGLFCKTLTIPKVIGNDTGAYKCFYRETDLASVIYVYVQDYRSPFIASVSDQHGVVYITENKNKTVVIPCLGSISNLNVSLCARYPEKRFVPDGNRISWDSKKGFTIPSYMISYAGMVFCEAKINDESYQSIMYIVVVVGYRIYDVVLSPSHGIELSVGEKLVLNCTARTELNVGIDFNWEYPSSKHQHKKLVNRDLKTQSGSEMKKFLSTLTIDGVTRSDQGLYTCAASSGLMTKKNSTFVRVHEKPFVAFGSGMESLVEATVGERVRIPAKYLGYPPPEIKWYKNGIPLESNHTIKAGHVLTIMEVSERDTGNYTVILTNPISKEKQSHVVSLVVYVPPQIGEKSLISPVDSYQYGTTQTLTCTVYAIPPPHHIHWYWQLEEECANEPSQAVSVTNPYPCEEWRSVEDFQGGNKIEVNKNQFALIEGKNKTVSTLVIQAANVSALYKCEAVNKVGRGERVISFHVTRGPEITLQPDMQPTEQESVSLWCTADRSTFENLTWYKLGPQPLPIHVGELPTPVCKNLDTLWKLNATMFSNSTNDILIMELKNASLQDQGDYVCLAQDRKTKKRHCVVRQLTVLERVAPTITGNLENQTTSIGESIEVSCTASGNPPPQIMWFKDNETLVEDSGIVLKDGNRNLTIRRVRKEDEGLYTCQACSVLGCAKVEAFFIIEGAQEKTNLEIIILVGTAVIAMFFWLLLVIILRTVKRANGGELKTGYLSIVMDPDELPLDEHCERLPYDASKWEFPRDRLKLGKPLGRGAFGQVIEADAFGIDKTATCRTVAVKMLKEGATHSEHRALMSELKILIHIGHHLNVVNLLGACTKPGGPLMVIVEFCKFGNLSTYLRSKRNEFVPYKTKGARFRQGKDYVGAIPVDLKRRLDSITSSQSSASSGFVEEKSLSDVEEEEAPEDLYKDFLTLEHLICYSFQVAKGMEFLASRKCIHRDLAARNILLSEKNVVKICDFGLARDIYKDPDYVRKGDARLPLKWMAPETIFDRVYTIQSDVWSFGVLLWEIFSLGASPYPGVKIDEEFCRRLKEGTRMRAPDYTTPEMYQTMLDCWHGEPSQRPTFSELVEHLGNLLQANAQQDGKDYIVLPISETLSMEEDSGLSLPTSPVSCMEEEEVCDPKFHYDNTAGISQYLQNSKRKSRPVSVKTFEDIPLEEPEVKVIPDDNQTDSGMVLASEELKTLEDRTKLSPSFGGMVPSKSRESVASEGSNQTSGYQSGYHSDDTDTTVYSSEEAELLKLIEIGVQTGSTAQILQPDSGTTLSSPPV
T1 sequence (P22607 whole entry, change not shown, the tested form may be a part): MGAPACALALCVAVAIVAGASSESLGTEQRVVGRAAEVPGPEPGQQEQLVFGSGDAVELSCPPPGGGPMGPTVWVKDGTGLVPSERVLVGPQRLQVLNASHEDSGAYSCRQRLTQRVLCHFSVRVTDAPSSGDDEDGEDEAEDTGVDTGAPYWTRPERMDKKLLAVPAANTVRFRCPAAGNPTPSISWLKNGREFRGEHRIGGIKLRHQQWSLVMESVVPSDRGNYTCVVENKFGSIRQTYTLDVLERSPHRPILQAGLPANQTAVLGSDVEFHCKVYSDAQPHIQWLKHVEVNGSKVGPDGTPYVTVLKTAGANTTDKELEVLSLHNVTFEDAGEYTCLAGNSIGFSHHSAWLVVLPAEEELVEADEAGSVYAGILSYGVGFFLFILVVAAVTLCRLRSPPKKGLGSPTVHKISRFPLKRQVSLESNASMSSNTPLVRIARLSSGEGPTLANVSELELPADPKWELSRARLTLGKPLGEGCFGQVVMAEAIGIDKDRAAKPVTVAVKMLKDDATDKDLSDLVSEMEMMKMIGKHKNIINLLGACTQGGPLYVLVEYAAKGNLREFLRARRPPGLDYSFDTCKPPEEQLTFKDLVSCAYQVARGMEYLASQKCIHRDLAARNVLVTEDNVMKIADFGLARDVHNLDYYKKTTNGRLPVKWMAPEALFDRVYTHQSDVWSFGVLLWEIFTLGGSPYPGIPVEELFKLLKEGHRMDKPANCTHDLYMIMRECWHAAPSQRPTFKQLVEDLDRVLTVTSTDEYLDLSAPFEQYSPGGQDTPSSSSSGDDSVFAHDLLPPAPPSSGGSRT

Take `CS(=O)(=O)CCNCCON=Cc1ccn2c(-c3cccc(NC(=O)NCC(F)(F)F)c3)cnc2c1` [Compound 1-52, 1-[3-(7-{[2-(2-Methanesulfonyl-ethylamino)-ethoxyimino]-methyl}-imidazo[1,2-a]pyridin-3-yl)-phenyl]-3-(2,2,2-trifluoro-ethyl)-urea]: the GI50 on Ba/F3-TEL-FGFR3 cells stood at 4900 nM. For the same molecule, the IC50 on VEGFR2 was found to be 0.73 µM; on FGFR3, 0.026 µM. Also, the inhibition at 10 µM in data set [1] (Mus musculus) turned out to be 25%.
Regarding `COCCNCCON=Cc1ccn2c(-c3cccc(NC(=O)NCC(F)(F)F)c3)cnc2c1` [Compound 1-53, 1-[3-(7-{[2-(2-Methoxy-ethylamino)-ethoxyimino]-methyl}-imidazo[1,2-a]pyridin-3-yl)-phenyl]-3-(2,2,2-trifluoro-ethyl)-urea], the GI50 at Ba/F3-TEL-FGFR3 cells was found to be 480 nM. The figures for the IC50 (at VEGFR2; in data set [1]; at FGFR3) were 0.81 µM, 13000 nM and 0.035 µM, respectively.
For `O=C(NCC(F)(F)F)Nc1cccc(-c2cnc3cc(C=NOCCO)ccn23)c1` [Compound 1-54, 1-(3-{7-[(2-Hydroxy-ethoxyimino)-methyl]-imidazo[1,2-a]pyridin-3-yl}-phenyl)-3-(2,2,2-trifluoro-ethyl)-urea], at Ba/F3-TEL-FGFR3 cells, the GI50 stood at 500 nM. The results for the IC50 (on VEGFR2; in data set [1]; on FGFR3) were 0.62 µM, 510 nM and 0.021 µM, respectively.
`O=C(NCC(F)(F)F)Nc1cccc(-c2cnc3cc(C=NOCc4cccnc4)ccn23)c1` [Compound 1-55, 1-(3-{7-[(Pyridin-3-ylmethoxyimino)-methyl]-imidazo[1,2-a]pyridin-3-yl}-phenyl)-3-(2,2,2-trifluoro-ethyl)-urea]: the GI50 on Ba/F3-TEL-FGFR3 cells is 140 nM. Further, the values for the IC50 on VEGFR2 and at FGFR3 were 0.38 µM and 0.0077 µM, respectively. For the same molecule, the inhibition at 3 µM in data set [1] (Mus musculus) worked out at 51%.
With `CN1CCN(CCCON=Cc2ccn3c(-c4cccc(NC(=O)NCC(F)(F)F)c4)cnc3c2)CC1` [Compound 1-56, 1-[3-(7-{[3-(4-Methyl-piperazin-1-yl)-propoxyimino]-methyl}-imidazo[1,2-a]pyridin-3-yl)-phenyl]-3-(2,2,2-trifluoro-ethyl)-urea], the GI50 at Ba/F3-TEL-FGFR3 cells is 320 nM. The figures for the IC50 (on VEGFR2; in data set [1]; at FGFR3) were 0.38 µM, 3000 nM and 0.019 µM, respectively.
Regarding `CN(C)CCON=Cc1ccn2c(-c3cccc(NC(=O)NCC(F)(F)F)c3)cnc2c1` [Compound 1-57, 1-(3-{7-[(2-Dimethylamino-ethoxyimino)-methyl]-imidazo[1,2-a]pyridin-3-yl}-phenyl)-3-(2,2,2-trifluoro-ethyl)-urea], the GI50 at Ba/F3-TEL-FGFR3 cells was 250 nM. Also, the IC50 was 0.47 µM on VEGFR2 and 0.029 µM at FGFR3. Moreover, the inhibition at 3 µM in data set [1] (Mus musculus) came out at 30%.
Regarding `CN(CCO)CCON=Cc1ccn2c(-c3cccc(NC(=O)NCC(F)(F)F)c3)cnc2c1` [Compound 1-58, 1-{3-[7-({2-[(2-Hydroxy-ethyl)-methyl-amino]-ethoxyimino}-methyl)-imidazo[1,2-a]pyridin-3-yl]-phenyl}-3-(2,2,2-trifluoro-ethyl)-urea], the GI50 on Ba/F3-TEL-FGFR3 cells was 780 nM. The figures for the IC50 on VEGFR2 and at FGFR3 were 0.34 µM and 0.029 µM, respectively. For the same molecule, in data set [1] (Mus musculus), the inhibition at 10 µM came to 55%.
As to `O=C(NCC(F)(F)F)Nc1cccc(-c2cnc3cc(C=NOCCC4CCNCC4)ccn23)c1` [Compound 1-59, 1-(3-{7-[(2-Piperidin-4-yl-ethoxyimino)-methyl]-imidazo[1,2-a]pyridin-3-yl}-phenyl)-3-(2,2,2-trifluoro-ethyl)-urea], at Ba/F3-TEL-FGFR3 cells (% at 3.00 μM), the “BaF3-TEL-FGFR3 prolif (μM)” value is reported as 42.0% at. The IC50 stood at 0.33 µM on VEGFR2 and 0.024 µM at FGFR3. Further, the inhibition at 10 µM in data set [1] (Mus musculus) was 11%.
On to `N#CCCN1CCN(CCCON=Cc2ccn3c(-c4cccc(NC(=O)NCC(F)(F)F)c4)cnc3c2)CC1` [Compound 1-60, 1-{3-[7-({3-[4-(2-Cyano-ethyl)-piperazin-1-yl]-propoxyimino}-methyl)-imidazo[1,2-a]pyridin-3-yl]-phenyl}-3-(2,2,2-trifluoro-ethyl)-urea], for which the “BaF3-TEL-FGFR3 prolif (μM)” value at Ba/F3-TEL-FGFR3 cells (% at 1.00 μM) was found to be 85.0% at. In addition, the figures for the IC50 on VEGFR2 and on FGFR3 were 0.56 µM and 0.022 µM, respectively. Moreover, in data set [1] (Mus musculus, % at 1.00 μM), the inhibition at 1 µM turned out to be 0%.
On to `O=C(NCC(F)(F)F)Nc1cccc(-c2cnc3cc(C=NOCC(O)CNC4CC4)ccn23)c1` (centres unmarked) [Compound 1-61, 1-(3-{7-[(3-Cyclopropylamino-2-hydroxy-propoxyimino)-methyl]-imidazo[1,2-a]pyridin-3-yl}-phenyl)-3-(2,2,2-trifluoro-ethyl)-urea], for which the GI50 at Ba/F3-TEL-FGFR3 cells stood at 930 nM. Also, the values for the IC50 on VEGFR2 and at FGFR3 were 0.44 µM and 0.029 µM, respectively. In addition, the inhibition at 3 µM in data set [1] (Mus musculus) turned out to be 30%.
`C/C(=N\OCCO)c1ccn2c(-c3cccc(NC(=O)NCC(F)(F)F)c3)cnc2c1` [Compound 1-62, 1-[3-(7-{1-2-Hydroxy-ethoxyimino-ethyl}-imidazo[1,2-a]pyridin-3-yl)-phenyl]-3-(2,2,2-trifluoro-ethyl)-urea]: at Ba/F3-TEL-FGFR3 cells, the GI50 stood at 110 nM. Moreover, the IC50 came out at 0.051 µM at VEGFR2 and 0.0035 µM at FGFR3. In addition, the inhibition at 10 µM in data set [1] (Mus musculus) stood at 45%.
Regarding `CN(C)S(=O)(=O)N1CCN(CCCO/N=C/c2ccn3c(-c4cccc(NC(=O)NCC(F)(F)F)c4)cnc3c2)CC1` [Compound 1-63, 4-{3-[1-(3-{3-[3-(2,2,2-Trifluoro-ethyl)-ureido]-phenyl}-imidazo[1,2-a]pyridin-7-yl)-meth-(E)-ylideneaminooxy]-propyl}-piperazine-1-sulfonic acid dimethylamide], the GI50 at Ba/F3-TEL-FGFR3 cells was determined as 310 nM. Besides, the results for the IC50 at VEGFR2 and on FGFR3 were 0.5 µM and 0.016 µM, respectively. Besides, in data set [1] (Mus musculus), the inhibition at 3 µM turned out to be 45%.
Broadly, the melting point is the temperature of the solid-liquid transition. Turning to `CC(C)Oc1cc(NC(=O)NCC(F)(F)F)cc(-c2cnc3cc(/C(=N/O)C4CC4)ccn23)c1` [Compound 1-66, 1-[3-(7-{Cyclopropyl-[(E)-hydroxyimino]-methyl}-imidazo[1,2-a]pyridin-3-yl)-5-isopropoxy-phenyl]-3-(2,2,2-trifluoro-ethyl)-urea], the melting point lay in the range of 222 to 223 °C. The IC50 at VEGFR2 came out at 1.4 µM.
